This passage reports Activity results from ChEMBL document CHEMBL5678818, “Discovery of potent SOS1 inhibitors that block RAS activation via disruption of the RAS-SOS1 interaction” (Proc Natl Acad Sci U S A, 2019).

Each structure is given as a SMILES string.

In test [1] the target is Angiopoietin-1 receptor (Homo sapiens) (UniProt Q02763). Description: Inhibition of TIE2 (unknown origin) assessed as residual activity at 100 nM by KINOMEscan analysis relative to control.
Test [2] addresses Receptor tyrosine-protein kinase erbB-4 (Homo sapiens) (UniProt Q15303). Put plainly: Inhibition of ERBB4 (unknown origin) assessed as residual activity at 100 nM by KINOMEscan analysis relative to control.
Test [3] deals with Serine/threonine-protein kinase N2 (Homo sapiens) (UniProt Q16513). Description: Inhibition of PKN2 (unknown origin) assessed as residual activity at 100 nM by KINOMEscan analysis relative to control.
The target of test [4] is T1, Rhodopsin kinase GRK7 (Homo sapiens) (UniProt Q8WTQ7).
T1 sequence (whole entry): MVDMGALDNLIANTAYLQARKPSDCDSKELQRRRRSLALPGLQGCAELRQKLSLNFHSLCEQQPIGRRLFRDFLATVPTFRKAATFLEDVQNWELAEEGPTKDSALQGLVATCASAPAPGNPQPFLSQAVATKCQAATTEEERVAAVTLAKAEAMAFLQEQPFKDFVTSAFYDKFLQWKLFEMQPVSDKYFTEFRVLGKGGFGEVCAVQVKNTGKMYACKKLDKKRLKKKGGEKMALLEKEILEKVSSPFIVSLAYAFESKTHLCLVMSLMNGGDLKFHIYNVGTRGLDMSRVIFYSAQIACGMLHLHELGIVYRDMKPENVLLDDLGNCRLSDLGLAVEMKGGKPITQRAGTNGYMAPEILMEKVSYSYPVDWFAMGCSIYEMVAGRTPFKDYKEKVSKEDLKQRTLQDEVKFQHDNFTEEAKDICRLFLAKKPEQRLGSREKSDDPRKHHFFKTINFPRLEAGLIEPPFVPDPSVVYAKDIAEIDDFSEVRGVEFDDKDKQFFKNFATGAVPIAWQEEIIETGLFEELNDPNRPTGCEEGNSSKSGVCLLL
Description: Inhibition of GRK7 (unknown origin) assessed as residual activity at 100 nM by KINOMEscan analysis relative to control.

For test [5], the target named is Bone morphogenetic protein receptor type-1B (Homo sapiens) (UniProt O00238). Put plainly: Inhibition of BMPR1B (unknown origin) assessed as residual activity at 100 nM by KINOMEscan analysis relative to control.
For test [6], the target named is Serine/threonine-protein kinase 32B (Homo sapiens) (UniProt Q9NY57). Put plainly: Inhibition of YANK2 (unknown origin) assessed as residual activity at 100 nM by KINOMEscan analysis relative to control.
The target of test [7] is Insulin receptor (Homo sapiens) (UniProt P06213). Description: Inhibition of INSR (unknown origin) assessed as residual activity at 100 nM by KINOMEscan analysis relative to control.
Test [8] concerns the target Cyclin-dependent kinase 11B (Homo sapiens) (UniProt P21127). Put plainly: Inhibition of CDC2L1 (unknown origin) assessed as residual activity at 100 nM by KINOMEscan analysis relative to control.
Test [9] addresses Mitogen-activated protein kinase kinase kinase 4 (Homo sapiens) (UniProt Q9Y6R4). Put plainly: Inhibition of MAP3K4 (unknown origin) assessed as residual activity at 100 nM by KINOMEscan analysis relative to control.
The target of test [10] is T2, Serine/threonine-protein kinase LATS1 (Homo sapiens) (UniProt O95835).
T2 sequence (whole entry): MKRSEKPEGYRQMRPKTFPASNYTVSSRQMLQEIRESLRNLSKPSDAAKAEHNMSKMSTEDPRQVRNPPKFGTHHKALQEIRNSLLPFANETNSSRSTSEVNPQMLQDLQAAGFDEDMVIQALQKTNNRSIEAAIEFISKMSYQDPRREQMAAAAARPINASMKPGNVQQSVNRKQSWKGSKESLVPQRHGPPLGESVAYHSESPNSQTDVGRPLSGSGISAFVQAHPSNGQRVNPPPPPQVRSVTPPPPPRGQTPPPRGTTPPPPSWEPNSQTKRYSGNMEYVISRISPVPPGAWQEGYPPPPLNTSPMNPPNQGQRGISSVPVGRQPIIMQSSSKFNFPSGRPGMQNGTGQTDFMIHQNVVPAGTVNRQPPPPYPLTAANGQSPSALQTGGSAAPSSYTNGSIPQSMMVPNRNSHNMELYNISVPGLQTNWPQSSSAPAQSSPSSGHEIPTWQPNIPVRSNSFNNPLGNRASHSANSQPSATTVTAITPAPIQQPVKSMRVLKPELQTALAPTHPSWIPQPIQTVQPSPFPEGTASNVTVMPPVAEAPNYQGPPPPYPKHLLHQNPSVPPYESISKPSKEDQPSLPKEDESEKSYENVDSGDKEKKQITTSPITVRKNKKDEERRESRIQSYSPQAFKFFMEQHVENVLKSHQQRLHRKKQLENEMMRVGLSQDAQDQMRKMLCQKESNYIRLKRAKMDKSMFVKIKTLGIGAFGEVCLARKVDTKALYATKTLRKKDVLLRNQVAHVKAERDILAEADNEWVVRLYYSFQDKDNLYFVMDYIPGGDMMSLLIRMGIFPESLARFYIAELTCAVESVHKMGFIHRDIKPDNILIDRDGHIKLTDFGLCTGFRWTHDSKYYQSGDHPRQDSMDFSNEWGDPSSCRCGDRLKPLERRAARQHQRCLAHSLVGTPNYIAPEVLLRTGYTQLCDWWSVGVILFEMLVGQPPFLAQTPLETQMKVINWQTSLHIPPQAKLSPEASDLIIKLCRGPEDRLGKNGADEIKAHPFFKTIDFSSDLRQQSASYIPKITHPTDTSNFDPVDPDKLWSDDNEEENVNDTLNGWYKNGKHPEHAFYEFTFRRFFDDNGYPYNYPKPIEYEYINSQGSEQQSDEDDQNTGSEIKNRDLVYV
Put plainly: Inhibition of LATS1 (unknown origin) assessed as residual activity at 100 nM by KINOMEscan analysis relative to control.

For test [11], the target named is Epidermal growth factor receptor (Homo sapiens, UniProt P00533). Put plainly: Inhibition of EGFR (unknown origin) assessed as residual activity at 100 nM by KINOMEscan analysis relative to control.
Epidermal growth factor receptor, sequence (P00533 whole entry): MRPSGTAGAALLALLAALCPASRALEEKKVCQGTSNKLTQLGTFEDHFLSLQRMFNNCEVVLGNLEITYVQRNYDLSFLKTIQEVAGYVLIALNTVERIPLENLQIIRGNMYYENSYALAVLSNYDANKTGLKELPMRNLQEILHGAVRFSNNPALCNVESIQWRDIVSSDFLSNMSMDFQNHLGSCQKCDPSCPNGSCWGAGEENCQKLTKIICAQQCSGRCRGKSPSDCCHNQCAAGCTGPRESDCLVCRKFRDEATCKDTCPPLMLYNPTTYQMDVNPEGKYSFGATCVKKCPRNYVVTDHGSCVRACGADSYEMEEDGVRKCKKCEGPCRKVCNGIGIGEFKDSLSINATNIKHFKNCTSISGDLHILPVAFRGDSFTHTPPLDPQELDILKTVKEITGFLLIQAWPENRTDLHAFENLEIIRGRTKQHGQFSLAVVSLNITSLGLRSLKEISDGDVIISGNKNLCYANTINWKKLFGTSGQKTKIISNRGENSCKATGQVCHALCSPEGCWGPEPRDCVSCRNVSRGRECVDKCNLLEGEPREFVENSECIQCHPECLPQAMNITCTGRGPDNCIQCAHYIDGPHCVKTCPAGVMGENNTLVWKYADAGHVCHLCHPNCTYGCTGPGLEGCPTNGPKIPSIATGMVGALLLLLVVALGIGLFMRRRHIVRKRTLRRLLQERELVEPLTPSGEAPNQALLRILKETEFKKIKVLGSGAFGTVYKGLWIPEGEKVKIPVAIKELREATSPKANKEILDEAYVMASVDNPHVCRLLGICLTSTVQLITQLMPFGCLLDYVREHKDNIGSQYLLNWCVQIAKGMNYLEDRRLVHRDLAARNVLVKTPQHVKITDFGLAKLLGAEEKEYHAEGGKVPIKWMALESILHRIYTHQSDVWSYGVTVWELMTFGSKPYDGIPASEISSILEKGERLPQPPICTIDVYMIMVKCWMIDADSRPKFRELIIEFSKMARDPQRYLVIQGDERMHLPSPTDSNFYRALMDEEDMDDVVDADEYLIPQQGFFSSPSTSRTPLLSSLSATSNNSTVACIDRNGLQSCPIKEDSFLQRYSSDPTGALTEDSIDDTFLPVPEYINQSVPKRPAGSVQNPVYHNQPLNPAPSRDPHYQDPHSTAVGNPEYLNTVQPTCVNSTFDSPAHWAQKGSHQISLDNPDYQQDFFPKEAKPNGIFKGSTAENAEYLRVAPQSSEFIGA

Angiopoietin-1 receptor (Homo sapiens), sequence (Q02763 whole entry): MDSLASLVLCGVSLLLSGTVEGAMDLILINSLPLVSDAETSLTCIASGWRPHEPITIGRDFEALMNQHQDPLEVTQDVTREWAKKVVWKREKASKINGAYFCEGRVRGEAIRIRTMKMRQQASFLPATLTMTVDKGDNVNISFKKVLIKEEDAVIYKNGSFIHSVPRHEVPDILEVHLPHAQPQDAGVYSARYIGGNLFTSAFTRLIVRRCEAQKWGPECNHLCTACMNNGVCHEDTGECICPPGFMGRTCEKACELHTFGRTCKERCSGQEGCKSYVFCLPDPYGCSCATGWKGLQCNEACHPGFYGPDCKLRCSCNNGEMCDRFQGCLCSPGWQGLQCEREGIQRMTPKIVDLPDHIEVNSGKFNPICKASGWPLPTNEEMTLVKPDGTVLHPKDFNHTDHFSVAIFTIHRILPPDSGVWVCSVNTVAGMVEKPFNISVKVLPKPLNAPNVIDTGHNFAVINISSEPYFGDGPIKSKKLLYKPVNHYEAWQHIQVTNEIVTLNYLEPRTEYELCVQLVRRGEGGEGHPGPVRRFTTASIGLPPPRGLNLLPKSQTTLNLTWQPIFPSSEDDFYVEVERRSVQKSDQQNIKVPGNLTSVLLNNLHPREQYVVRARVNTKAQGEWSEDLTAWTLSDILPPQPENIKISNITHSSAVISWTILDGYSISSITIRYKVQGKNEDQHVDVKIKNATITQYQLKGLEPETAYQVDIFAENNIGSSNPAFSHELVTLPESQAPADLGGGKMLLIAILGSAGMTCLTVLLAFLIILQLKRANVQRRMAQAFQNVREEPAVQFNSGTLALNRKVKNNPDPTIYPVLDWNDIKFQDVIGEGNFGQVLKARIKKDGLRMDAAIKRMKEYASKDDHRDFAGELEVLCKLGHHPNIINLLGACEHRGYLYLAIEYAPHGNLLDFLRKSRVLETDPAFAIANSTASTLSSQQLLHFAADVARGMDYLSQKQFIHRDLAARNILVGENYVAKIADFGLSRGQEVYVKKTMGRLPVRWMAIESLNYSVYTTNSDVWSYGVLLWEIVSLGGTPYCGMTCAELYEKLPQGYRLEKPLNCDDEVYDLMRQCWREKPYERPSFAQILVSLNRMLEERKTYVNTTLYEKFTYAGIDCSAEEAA
Receptor tyrosine-protein kinase erbB-4 (Homo sapiens), sequence (Q15303 whole entry): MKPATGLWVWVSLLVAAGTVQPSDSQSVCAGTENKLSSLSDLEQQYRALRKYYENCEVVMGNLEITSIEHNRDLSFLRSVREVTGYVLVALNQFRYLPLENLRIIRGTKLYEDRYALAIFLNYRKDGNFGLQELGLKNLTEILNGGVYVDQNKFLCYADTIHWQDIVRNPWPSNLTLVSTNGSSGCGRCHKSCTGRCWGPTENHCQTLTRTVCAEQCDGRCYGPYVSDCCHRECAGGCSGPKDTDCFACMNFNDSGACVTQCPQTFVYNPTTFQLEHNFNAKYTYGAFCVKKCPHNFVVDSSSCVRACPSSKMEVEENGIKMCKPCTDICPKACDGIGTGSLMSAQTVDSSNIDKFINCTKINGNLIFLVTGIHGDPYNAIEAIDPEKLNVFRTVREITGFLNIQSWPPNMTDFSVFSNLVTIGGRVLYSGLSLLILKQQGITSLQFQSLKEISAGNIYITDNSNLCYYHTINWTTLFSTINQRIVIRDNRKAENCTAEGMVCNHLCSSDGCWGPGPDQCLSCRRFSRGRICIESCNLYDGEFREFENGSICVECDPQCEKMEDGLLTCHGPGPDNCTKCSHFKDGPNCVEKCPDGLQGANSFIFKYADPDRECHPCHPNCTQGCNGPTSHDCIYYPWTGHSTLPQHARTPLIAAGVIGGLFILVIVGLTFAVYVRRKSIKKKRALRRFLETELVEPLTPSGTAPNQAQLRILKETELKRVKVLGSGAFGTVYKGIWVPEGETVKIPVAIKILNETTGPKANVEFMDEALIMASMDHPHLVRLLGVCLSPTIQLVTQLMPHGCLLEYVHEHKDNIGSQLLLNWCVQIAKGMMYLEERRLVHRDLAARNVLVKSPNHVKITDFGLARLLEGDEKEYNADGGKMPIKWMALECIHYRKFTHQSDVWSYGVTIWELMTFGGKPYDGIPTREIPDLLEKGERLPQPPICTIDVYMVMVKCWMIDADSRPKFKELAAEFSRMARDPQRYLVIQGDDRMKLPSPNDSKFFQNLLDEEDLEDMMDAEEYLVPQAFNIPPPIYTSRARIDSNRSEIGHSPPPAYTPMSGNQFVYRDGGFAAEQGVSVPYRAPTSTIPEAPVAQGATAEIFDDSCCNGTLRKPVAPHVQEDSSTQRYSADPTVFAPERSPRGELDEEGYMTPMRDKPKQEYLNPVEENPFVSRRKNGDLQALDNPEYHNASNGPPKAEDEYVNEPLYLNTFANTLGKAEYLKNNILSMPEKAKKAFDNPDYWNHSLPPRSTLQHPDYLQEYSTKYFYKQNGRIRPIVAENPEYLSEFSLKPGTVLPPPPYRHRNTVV
Bone morphogenetic protein receptor type-1B (Homo sapiens), sequence (O00238 whole entry): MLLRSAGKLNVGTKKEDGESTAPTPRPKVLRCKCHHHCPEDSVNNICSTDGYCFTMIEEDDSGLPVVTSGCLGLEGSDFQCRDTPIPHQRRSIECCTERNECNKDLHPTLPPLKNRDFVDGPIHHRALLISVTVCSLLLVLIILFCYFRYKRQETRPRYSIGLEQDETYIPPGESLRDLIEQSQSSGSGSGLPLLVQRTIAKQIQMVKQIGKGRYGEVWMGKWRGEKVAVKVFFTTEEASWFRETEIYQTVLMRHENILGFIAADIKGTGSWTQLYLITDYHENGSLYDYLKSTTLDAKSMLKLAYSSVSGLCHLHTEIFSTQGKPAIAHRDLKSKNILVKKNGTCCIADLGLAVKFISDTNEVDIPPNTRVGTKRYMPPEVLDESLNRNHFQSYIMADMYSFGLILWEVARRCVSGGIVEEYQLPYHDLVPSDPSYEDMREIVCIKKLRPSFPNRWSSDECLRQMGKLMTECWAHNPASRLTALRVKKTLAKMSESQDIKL
Cyclin-dependent kinase 11B (Homo sapiens), sequence (P21127 whole entry): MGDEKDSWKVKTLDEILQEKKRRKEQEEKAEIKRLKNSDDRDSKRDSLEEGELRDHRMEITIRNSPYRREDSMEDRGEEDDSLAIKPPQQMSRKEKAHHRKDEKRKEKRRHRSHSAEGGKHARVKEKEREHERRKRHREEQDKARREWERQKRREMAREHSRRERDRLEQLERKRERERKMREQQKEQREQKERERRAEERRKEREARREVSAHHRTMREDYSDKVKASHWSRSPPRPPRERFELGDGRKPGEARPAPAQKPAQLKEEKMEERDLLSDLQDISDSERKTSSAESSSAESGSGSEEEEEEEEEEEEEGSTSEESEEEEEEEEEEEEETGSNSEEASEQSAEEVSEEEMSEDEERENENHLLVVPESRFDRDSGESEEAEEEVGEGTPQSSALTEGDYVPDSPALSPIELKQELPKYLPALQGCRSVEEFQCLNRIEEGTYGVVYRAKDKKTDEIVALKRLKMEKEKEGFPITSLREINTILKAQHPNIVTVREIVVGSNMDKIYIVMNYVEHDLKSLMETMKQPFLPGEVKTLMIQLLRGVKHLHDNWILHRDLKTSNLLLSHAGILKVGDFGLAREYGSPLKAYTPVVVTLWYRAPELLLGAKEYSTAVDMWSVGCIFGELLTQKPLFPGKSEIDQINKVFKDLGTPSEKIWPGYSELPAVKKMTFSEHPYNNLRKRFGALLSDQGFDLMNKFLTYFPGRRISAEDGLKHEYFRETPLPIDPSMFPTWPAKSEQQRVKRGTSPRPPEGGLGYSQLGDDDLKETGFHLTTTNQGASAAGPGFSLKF

For the compound `COc1cc2ncnc(N[C@H](C)c3cccc4ccccc34)c2cc1OC`, the Activity was found to be 68% in test [1]; 100% in test [2]; 88% in [3]; 84% in test [4]; 92% in test [5]; 84% in test [6]. Also, the Activity in [7] is 88%; in [8] it was 82%; in test [9], 68%; in [10], 97%; in test [11] it was 93%.
